Experiments:
[1] = test system: high sucrose diet-fed hamster; experiment: Effectiveness in high sucrose diet-fed hamster (plasma lipid change rate); assay type: in vivo, Syrian hamsters; settings: for Change rate Non-HDL Cho / Change rate TG / Change rate Total Cho: 14th day, versus control group
Procedure: Pharmacological action of EPA-E and/or tocopherol nicotinate on plasma lipids was confirmed by using hamsters that had been fed high sucrose diet. 6 week old male Syrian hamsters (Japan SLC, Inc.) were allowed to freely take fish meal-less F-1 diet (F-1, Funabashi Farm) under 12 hour light-dark cycles at 23°C for 2 weeks, and then, high sucrose diet (D11511, Research Diet Inc.) for 2 weeks. 6 groups (each comprising 6 animals), namely, control group, EPA-E 300 group, EPA-E 1000 group, tocopherol nicotinate 1000 group (hereinafter referred to as TN1000 group), low dose combination group, and high dose combination group were set. During the feeding of the high sucrose diet, the EPA-E 300 group was administered with 300 mg/kg of EPA-E (Mochida Pharmaceutical Co.); the EPA-E 1000 group was administered with 1000 mg/kg of EPA-E; the TN1000 group was administered with 1000 mg/kg of tocopherol nicotinate (Wako Pure Chemical Industries, Ltd.); the low dose combination group was administered with 300 mg/kg of EPA-E and 1000 mg/kg of tocopherol nicotinate; and the high dose combination group was administered with 1000 mg/kg of EPA-E and 1000 mg/kg of tocopherol nicotinate after suspending in 5% aqueous solution of gum arabic. The control group was orally administered with 5% aqueous solution of gum arabic once a day. Blood was collected one day before the start of the administration and on the 14th day of the administration, and plasma was separated by centrifugation. Plasma TG, total Cho, and HDL Cho concentration were respectively measured using a biochemical analyzer (A0400, Olympus Corporation) and commercially available assay reagent (Wako Pure Chemical Industries, Ltd.). The nan-HDL Cho concentration (total Cho-HDL Cho) was also calculated. No statistically significant difference was found in the plasma lipid concentrations of various groups on the day before the start of the administration. The plasma TG, total Cho, and non-HDL Cho concentration of each group at 14th day of the drug administration was compared with the corresponding values of the control group, and change rate was calculated by the following equation: Change rate (%) = [{(lipid concentration of each group)-(lipid concentration of control group)}x100]/(lipid concentration of the control group) [formula] For the combination group, sum of the change rate of the EPA-E sole administration group and the change rate of the tocopherol nicotinate sole administration group is shown in Table 1 as the theoretical change rate of the combination group. When the change rate of the actual measurement was negative and the value was lower than the theoretical value, synergistic effect by the combined use in the lipid decrease was deemed to have been realized.

Cho diet rabbit = experiment: Effectiveness in Cho diet rabbit (plasma lipids, auricle skin temperature, platelet collagen aggregation); assay type: in vivo, Japan white male rabbits; settings: HCD diet 12 weeks; EPA-E 1000 mg/kg or tocopherol nicotinate 300 mg/kg orally once a day; compared to control group
Description: Pharmacological action of EPA-E and/or tocopherol nicotinate on plasma lipids, auricle skin temperature, and platelet aggregation is confirmed by using rabbits that have been fed with Cho diet (hereinafter referred to as "HCD diet") known to develop a dyslipidemia. Japan white male rabbits (Funabashi Farm) having a body weight of 2.7 to 3.3 kg are allowed to freely take 100 g/day of normal diet (F-1, Funabashi Farm) or HCD diet (RC-4 supplemented with 1% Cho, Oriental Yeast Co.,Ltd.) for 12 weeks under 12 hour light-dark cycles at 23°C. 5 groups (each comprising 10 animals), namely, normal group (normal diet feeding); control group (HCD diet feeding); EPA-E group (HCD diet feeding + EPA-E administration); tocopherol nicotinate group (HCD diet feeding + tocopherol nicotinate administration); and combination group (HCD diet feeding + EPA-E administration + tocopherol nicotinate administration) are set. During the feeding, the EPA-E group is administered with 1000 mg/kg of EPA-E; the tocopherol nicotinate group is administered with 300 mg/kg of tocopherol nicotinate; and the combination group is administered with 1000 mg/kg of EPA-E and […] of tocopherol nicotinate after suspending in 5% aqueous solution of gum arabic. The administration is conducted orally once a day. The normal group and the control group are orally administered with 5% aqueous solution of gum arabic once a day. At the start of the administration and after 12 weeks of feeding, auricle skin temperature is measured by thermography and blood is collected for plasma biochemical tests. Platelet collagen aggregation is also checked after 12 weeks of feeding by measuring absorbance.

hypertriglyceridemia rat = experiment: Effectiveness in hypertriglyceridemia rat; assay type: in vivo, Zucker Diabetic Fatty rat; settings: 4 weeks; EPA-E 300 mg/kg or tocopherol nicotinate 100 mg/kg orally once a day as emulsion; compared to control group
Procedure: 6 week old male Zucker Diabetic Fatty rat (Charles River Japan) are allowed to freely take diabetes-inducing diet (Purina 5008 (crude protein content, 23.5%; crude lipid content, 6.5%)) under 12 hour light-dark cycles at 23°C. 4 groups (each comprising 10 animals), namely, control group; EPA-E group (EPA-E administration); tocopherol nicotinate group (tocopherol nicotinate administration); and combination group (EPA-E administration + tocopherol nicotinate administration) are set. During the feeding, the EPA-E group is administered with 300 mg/kg of EPA-E; the tocopherol nicotinate group is administered with 100 mg/kg of tocopherol nicotinate; and the combination group is administered with 300 mg/kg of EPA-E and 100 mg/kg of tocopherol nicotinate. The administration is conducted orally once a day. The drugs are administered by preparing an emulsion preparation according to Preparation Example 8. The control group is orally administered with base of the emulsion preparation of Preparation Example 8 once a day. At the start of the administration and after 4 weeks of feeding, auricle skin temperature is measured by thermography and blood is collected for plasma biochemical test.

[2] = test system: lauric acid-induced peripheral arterial occlusive hypertriglyceridemia rat; experiment: Effectiveness in lauric acid-induced peripheral arterial occlusive hypertriglyceridemia rat (lesion score); assay type: in vivo, Wister rats; settings: 2 weeks after the surgery; EPA-E 300 mg/kg or tocopherol nicotinate 100 mg/kg orally once a day; compared to control group
Procedure: 4 week old male Wister rats (Japan SLC, Inc.) are allowed to freely take high sucrose diet (AIN-76A, PURINA MILLS) for 4 weeks under 12 hour light-dark cycles at 23°C. 5 groups (each comprising 10 animals), namely, sham surgery group; control group, EPA-E group (EPA-E administration); tocopherol nicotinate group (tocopherol nicotinate administration); and combination group (EPA-E administration + tocopherol nicotinate administration) are set. During the feeding, the EPA-E group is administered with 300 mg/kg of EPA-E; the tocopherol nicotinate group is administered with 100 mg/kg of tocopherol nicotinate; and the combination group is administered with 300 mg/kg of EPA-E and 100 mg/kg of tocopherol nicotinate after suspending in 5% aqueous solution of gum arabic. The administration is conducted orally once a day. […] Progress of the lesion of the limbs on the peripheral side of the injection site is scored for wet gangrene and dry gangrene, and the lesion is visually inspected with naked eyes every day until 2 weeks after the surgery. Progress of the lesion is scored by the following criteria: • Score 0: no change, score 1: the lesion is limited to nail, score 2: the lesion is limited to finger, score 3: the lesion is expanded to footpad, and score 4: the lesion is expanded to lower limb.

| Structure (SMILES) | Change rate Non-HDL Cho ([1]; 300 mg/kg orally) [%] | Change rate TG ([1]; 300 mg/kg orally) [%] | Change rate Total Cho ([1]; 300 mg/kg orally) [%] | Change rate Non-HDL Cho ([1]; 1000 mg/kg orally) [%] | Change rate TG ([1]; 1000 mg/kg orally) [%] | Change rate Total Cho ([1]; 1000 mg/kg orally) [%] | decrease of the auricle skin temperature (Cho diet rabbit) | enhancement of the platelet collagen aggregation (Cho diet rabbit) | plasma TG concentration (Cho diet rabbit) | plasma total Cho concentration (Cho diet rabbit) | plasma TG concentration (hypertriglyceridemia rat) | plasma free fatty acid concentration (hypertriglyceridemia rat) | score of progress of the lesion (wet and dry gangrene, 0-4) [2] | lipid reducing action (plasma TG, total Cho, non-HDL Cho) ([1]; high sucrose diet, 14 days oral administration) |
| --- | --- | --- | --- | --- | --- | --- | --- | --- | --- | --- | --- | --- | --- | --- |
| CC/C=C\C/C=C\C/C=C\C/C=C\C/C=C\CCCC(=O)OCC [EPA-E, Ethyl icosapentaenoate] | 14.8 | 2.7 | 11.1 | 11.1 | 19.6 | 2.7 | – | – | – | – | – | – | – | – |
| Cc1c(C)c2c(c(C)c1OC(=O)c1cccnc1)CCC(C)(CCCC(C)CCCC(C)CCCC(C)C)O2 (centres unmarked) [tocopherol nicotinate] | – | – | – | -11.6 | -23.3 | -3.7 | also suppressed | also suppressed | suppressed increase | suppressed increase | suppressed increase | suppressed increase | improved scores | the action of reducing the TG and non-HDL Cho was found |
